Measurements as given in ChEMBL document CHEMBL5465560, “Selectivity Literature for EUbOPEN Chemogenomic Library” (2024).

Key:
[1] = target: T1, Serine/threonine-protein kinase Nek3 (Homo sapiens) (UniProt P51956); test: Selectivity interaction (KinomeScan (DiscoverX)) EUB0000618a NEK3; conditions: at 10 µM
T1 sequence (whole entry): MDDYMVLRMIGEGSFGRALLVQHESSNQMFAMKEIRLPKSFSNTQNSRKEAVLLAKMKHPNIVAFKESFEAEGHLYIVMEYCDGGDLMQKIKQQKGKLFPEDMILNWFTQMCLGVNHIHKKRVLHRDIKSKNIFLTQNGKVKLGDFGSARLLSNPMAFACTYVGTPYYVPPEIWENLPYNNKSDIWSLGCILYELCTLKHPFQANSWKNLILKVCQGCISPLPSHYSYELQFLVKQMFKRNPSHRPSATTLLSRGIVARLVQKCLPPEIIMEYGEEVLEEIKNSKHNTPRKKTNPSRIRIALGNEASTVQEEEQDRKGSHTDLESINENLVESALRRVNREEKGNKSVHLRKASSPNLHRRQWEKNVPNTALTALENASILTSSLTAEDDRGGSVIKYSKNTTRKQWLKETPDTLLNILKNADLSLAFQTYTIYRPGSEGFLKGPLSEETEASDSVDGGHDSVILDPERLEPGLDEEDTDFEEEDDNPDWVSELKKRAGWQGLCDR

[2] = target: T2, Serine/threonine-protein kinase D2 (Homo sapiens) (UniProt Q9BZL6); test: Selectivity interaction (SelectScreen profiling (Invitrogen)) EUB0000607a PRKD2; conditions: at 2 µM
T2 sequence (whole entry): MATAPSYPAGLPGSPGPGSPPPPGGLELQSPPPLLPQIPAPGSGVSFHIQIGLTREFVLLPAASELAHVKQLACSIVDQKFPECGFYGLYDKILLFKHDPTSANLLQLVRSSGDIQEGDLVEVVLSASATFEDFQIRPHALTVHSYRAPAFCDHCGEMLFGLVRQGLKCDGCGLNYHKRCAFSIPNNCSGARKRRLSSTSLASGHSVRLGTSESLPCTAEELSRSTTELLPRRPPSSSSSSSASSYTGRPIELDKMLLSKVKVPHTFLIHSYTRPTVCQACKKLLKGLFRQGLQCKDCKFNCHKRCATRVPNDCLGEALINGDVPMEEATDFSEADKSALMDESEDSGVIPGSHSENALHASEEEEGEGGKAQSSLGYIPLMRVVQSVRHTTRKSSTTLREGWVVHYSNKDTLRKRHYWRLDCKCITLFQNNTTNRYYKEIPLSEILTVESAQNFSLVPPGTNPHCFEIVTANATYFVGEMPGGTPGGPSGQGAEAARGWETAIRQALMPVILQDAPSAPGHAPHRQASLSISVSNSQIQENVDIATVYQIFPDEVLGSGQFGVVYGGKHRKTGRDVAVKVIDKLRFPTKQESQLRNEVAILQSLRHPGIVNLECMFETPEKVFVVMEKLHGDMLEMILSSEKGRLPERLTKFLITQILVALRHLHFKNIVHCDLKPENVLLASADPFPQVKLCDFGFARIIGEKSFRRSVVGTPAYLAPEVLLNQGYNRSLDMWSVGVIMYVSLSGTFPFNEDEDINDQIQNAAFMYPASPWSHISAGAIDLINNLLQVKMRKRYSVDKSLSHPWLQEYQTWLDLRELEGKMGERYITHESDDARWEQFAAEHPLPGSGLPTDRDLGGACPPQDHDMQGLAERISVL

[3] = target: Serine/threonine-protein kinase 38-like (Homo sapiens) (UniProt Q9Y2H1); test: Selectivity interaction (KinomeScan (DiscoverX)) EUB0000595a STK38L; conditions: at 10 µM
[4] = target: Serine/threonine-protein kinase OSR1 (Homo sapiens) (UniProt O95747); test: Selectivity interaction (KinomeScan (DiscoverX)) EUB0000595a OXSR1; conditions: at 10 µM
[5] = target: Ribosomal protein S6 kinase alpha-1 (Homo sapiens, UniProt Q15418); test: Selectivity interaction (Kinase panel (KiNativ target engagement assay in Jurkat cells)) EUB0001635a RPS6KA1; type: cell-based; conditions: Selectivity number of off-targets 0.0, Selectivity number of targets 233.0, Source Knowledge https://www.sciencedirect.com/science/article/pii/S2451945619300674?via%3Dihub, at 1 µM
[6] = target: T3, Dual specificity mitogen-activated protein kinase kinase 4 (Homo sapiens) (UniProt P45985); test: Selectivity interaction (KinomeScan (DiscoverX)) EUB0000666a MAP2K4; conditions: at 10 µM
T3 sequence (whole entry): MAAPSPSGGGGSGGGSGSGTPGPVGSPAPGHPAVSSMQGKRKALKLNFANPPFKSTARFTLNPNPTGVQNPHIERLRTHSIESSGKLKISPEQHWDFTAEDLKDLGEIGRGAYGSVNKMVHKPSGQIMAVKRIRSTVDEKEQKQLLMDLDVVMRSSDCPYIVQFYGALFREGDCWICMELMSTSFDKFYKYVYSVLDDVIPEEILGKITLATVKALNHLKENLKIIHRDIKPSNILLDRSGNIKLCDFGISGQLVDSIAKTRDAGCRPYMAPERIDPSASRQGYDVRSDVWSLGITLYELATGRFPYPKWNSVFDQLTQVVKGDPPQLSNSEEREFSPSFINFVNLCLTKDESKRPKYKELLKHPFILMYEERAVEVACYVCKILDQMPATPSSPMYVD

Chain of Ribosomal protein S6 kinase alpha-1 (Q15418 whole entry): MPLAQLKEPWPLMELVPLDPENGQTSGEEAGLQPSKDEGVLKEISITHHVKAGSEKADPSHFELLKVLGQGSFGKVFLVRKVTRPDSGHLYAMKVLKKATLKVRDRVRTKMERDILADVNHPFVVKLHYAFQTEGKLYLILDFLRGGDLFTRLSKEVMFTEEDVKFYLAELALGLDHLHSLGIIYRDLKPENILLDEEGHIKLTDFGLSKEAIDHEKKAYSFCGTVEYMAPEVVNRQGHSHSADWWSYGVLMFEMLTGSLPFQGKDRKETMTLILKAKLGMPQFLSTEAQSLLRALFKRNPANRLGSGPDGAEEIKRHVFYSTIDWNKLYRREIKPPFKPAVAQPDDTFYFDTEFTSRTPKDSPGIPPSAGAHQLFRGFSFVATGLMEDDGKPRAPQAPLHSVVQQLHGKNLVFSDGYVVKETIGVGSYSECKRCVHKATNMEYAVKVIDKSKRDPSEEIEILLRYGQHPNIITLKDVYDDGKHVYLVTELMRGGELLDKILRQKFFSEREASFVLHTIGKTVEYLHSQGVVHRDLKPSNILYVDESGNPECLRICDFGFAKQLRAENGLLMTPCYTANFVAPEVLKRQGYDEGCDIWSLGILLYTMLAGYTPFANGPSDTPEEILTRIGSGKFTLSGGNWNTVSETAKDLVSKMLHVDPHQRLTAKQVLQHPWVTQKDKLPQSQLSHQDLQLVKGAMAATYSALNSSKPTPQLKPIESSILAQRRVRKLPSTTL
Chain of Serine/threonine-protein kinase OSR1 (Homo sapiens) (O95747 2-527 limits assumed): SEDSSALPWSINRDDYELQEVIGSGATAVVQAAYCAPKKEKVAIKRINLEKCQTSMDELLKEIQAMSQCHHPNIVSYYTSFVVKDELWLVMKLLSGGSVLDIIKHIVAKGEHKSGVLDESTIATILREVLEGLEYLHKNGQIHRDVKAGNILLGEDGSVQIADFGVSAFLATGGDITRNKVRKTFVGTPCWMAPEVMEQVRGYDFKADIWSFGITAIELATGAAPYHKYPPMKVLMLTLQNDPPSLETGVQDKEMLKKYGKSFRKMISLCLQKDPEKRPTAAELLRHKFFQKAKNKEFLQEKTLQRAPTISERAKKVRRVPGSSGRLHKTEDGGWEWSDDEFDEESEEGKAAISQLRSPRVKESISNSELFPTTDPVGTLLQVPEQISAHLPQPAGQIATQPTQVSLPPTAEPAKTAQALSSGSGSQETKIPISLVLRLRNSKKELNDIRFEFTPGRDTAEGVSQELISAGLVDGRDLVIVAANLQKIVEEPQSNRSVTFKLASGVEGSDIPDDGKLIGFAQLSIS
Chain of Serine/threonine-protein kinase 38-like (Homo sapiens) (Q9Y2H1 2-464 limits assumed): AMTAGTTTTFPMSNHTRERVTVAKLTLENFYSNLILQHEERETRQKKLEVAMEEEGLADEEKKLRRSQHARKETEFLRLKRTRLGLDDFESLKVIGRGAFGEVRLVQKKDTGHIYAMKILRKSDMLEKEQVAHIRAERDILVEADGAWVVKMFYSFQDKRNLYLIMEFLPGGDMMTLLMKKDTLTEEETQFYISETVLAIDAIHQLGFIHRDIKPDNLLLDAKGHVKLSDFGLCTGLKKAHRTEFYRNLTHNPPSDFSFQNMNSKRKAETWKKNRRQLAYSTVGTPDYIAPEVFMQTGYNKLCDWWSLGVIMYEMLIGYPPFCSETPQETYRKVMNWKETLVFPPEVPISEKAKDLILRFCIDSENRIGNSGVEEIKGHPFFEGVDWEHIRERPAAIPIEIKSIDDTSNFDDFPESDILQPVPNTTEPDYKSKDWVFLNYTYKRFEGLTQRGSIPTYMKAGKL

## O[C@H]1CC[C@H](Nc2ncc3nc(Nc4c(F)cc(F)cc4F)n([C@H]4CCOC4)c3n2)CC1
[1]
  % of control: 100%

## CNC(=O)Nc1ccc(-c2nc(N3CC4CCC(C3)O4)c3cnn(C4CCC5(CC4)OCCO5)c3n2)cc1
[2]
  % of inhibition: 1%

## COCC(=O)NC/C=C/c1ccc2ncnc(Nc3ccc(Oc4ccc(C)nc4)c(C)c3)c2c1 [CP-724714]
[3]
  % of control: 100%
[4]
  % of control: 100%

## C=CC(=O)Nc1ccc(C(=O)Nc2[nH]nc3c2CN(C(=O)N[C@H](CN(C)C)c2ccccc2)C3(C)C)cc1
[5]
  % of engagement: -0.1%

## O=C(NOC[C@H](O)CO)c1ccc(F)c(F)c1Nc1ccc(I)cc1F
[6]
  % of control: 83%
